Values of other authors, collected in US20060122197A1, “Amido compounds and their use as pharmaceuticals” (priority 2004, published 2006).

Target: T1, 11βHSD1 in the eye (Homo sapiens, UniProt P28845)
T1 construct: host or cells: eye of healthy volunteers (in vivo)
Settings: healthy volunteers; after seven days of carbenoxolone treatment

T1 sequence (P28845 whole entry): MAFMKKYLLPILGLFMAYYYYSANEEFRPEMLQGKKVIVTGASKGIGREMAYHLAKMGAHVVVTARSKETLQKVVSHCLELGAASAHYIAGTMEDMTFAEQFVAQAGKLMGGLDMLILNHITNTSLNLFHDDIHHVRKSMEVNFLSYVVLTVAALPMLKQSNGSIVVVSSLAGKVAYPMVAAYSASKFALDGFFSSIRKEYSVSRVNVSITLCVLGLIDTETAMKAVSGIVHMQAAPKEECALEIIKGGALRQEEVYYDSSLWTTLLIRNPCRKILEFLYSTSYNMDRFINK

CC1(C)[C@@H](OC(=O)CCC(=O)O)CC[C@]2(C)[C@H]3C(=O)C=C4[C@@H]5C[C@@](C)(C(=O)O)CC[C@]5(C)CC[C@@]4(C)[C@]3(C)CC[C@@H]12 [carbenoxolone]
IOP was reduced by: 18%
